Test results taken from PubChem BioAssay AID1963866 (Molecular Pharmacology Branch, DTP, NCI, 2024).

Test system: PDC KRAS tumor spheroids with HUVEC/MSC, viability
Assay: Anticancer human tumor 349418-098-R-PDC patient-derived lung adenocarcinoma cell line growth inhibition [KRAS2]
Conditions: for viability, T/C: stronger effect = lower value
Outline: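 Combination screen of spheroid viability in tumor-cell co-cultures with endothelial (HUVEC) and mesenchymal stem cell stroma. Each agent was tested in half-log dilutions, topping at clinical Cmax or at 10 microM without a known Cmax.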

[1] = curve of first compound, second compound 0.1 µM
[2] = curve of first compound, second compound 0.316 µM
[3] = curve of first compound, second compound 1 µM
[4] = curve of first compound, second compound 3.16 µM
[5] = curve of first compound, second compound 10 µM
[6] = second compound 0.1 µM, first compound 0.0316 µM
[7] = second compound 0.1 µM, first compound 0.1 µM
[8] = second compound 0.316 µM, first compound 0.0316 µM
[9] = second compound 0.316 µM, first compound 0.1 µM
[10] = second compound 1 µM, first compound 0.0316 µM
[11] = second compound 1 µM, first compound 0.1 µM
[12] = second compound 3.16 µM, first compound 0.0316 µM
[13] = second compound 3.16 µM, first compound 0.1 µM
[14] = second compound 10 µM, first compound 0.0316 µM
[15] = second compound 10 µM, first compound 0.1 µM
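Note: spheroids exposed to compounds for seven days before readout.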

With COC(=O)c1ccc2c(C(=Nc3ccc(N(C)C(=O)CN4CCN(C)CC4)cc3)c3ccccc3)c(O)[nH]c2c1 the viability, T/C (compound 3.16 µM) was 24.1% [middle of 5 runs] and the viability, T/C (compound 10 µM) was 16.1% [middle of 5 runs].

With COc1cc2nccc(Oc3ccc(NC(=O)C4(C(=O)Nc5ccc(F)cc5)CC4)cc3)c2cc1OC the viability, T/C (compound 0.0316 µM) was 102% [middle of 5 runs], the viability, T/C (compound 0.1 µM) was 98.8% [middle of 5 runs] and the viability, T/C (compound 0.316 µM) was 94.4% [middle of 5 runs]. The viability, T/C (compound 3.16 µM) was 14.4% [middle of 5 runs] and the IC50 (curve of compound) was 1.76 µM [middle of 5 runs].

Cn1nccc1Nc1nccc(-c2cc3c(s2)C(C)(C)N(CCN2CCOCC2)C3=O)n1 + CNCc1ccccc1-c1csc(C(C)Nc2nc(C)nc3cc(OC)c(OC)cc23)c1 showed an IC50 [1] of 37.8 nM, an IC50 [2] of less than 31.6 nM and an IC50 [3] of less than 31.6 nM. It also gave an IC50 [4] of less than 31.6 nM, an IC50 [5] of less than 31.6 nM and a viability, T/C [6] of 54.8%. It also gave a viability, T/C [7] of 25.9%, a viability, T/C (second compound 0.1 µM, first compound 0.316 µM) of 12.2% and a viability, T/C (second compound 0.1 µM, first compound 1 µM) of 8.63%. It also gave a viability, T/C (second compound 0.1 µM, first compound 3.16 µM) of 5.95%, a viability, T/C (second compound 0.1 µM, first compound 10 µM) of 4.72% and a viability, T/C [8] of 48.3%. For the same compound, the viability, T/C [9] was 21.5%, the viability, T/C (second compound 0.316 µM, first compound 0.316 µM) was 10.3% and the viability, T/C (second compound 0.316 µM, first compound 1 µM) was 6.91%. It also gave a viability, T/C (second compound 0.316 µM, first compound 3.16 µM) of 6.22%, a viability, T/C (second compound 0.316 µM, first compound 10 µM) of 3.95% and a viability, T/C [10] of 28.4%. For the same compound, the viability, T/C [11] was 8.49%, the viability, T/C (second compound 1 µM, first compound 0.316 µM) was 3.82% and the viability, T/C (second compound 1 µM, first compound 1 µM) was 2.34%. It also gave a viability, T/C (second compound 1 µM, first compound 3.16 µM) of 1.92%, a viability, T/C (second compound 1 µM, first compound 10 µM) of 1.22% and a viability, T/C [12] of 0.04%. The viability, T/C [13] was 0.3%, the viability, T/C (second compound 3.16 µM, first compound 0.316 µM) was 0.06% and the viability, T/C (second compound 3.16 µM, first compound 1 µM) was 0.07%. It also gave a viability, T/C (second compound 3.16 µM, first compound 3.16 µM) of 0.05%, a viability, T/C (second compound 3.16 µM, first compound 10 µM) of 0.1% and a viability, T/C [14] of 0.19%. The viability, T/C [15] was 0.25%, the viability, T/C (second compound 10 µM, first compound 0.316 µM) was 0.07% and the viability, T/C (second compound 10 µM, first compound 1 µM) was 0.08%. The viability, T/C (second compound 10 µM, first compound 3.16 µM) was 0.23% and the viability, T/C (second compound 10 µM, first compound 10 µM) was 0.13%.

CC(C)n1nc(-c2ccc3oc(N)nc3c2)c2c(N)ncnc21 + CNCc1ccccc1-c1csc(C(C)Nc2nc(C)nc3cc(OC)c(OC)cc23)c1 gave an IC50 [1] of 0.987 nM, an IC50 [2] of 0.883 nM and an IC50 [3] of 0.558 nM. The IC50 [4] was less than 0.316 nM, the IC50 [5] was less than 0.316 nM and the viability, T/C (second compound 0.1 µM, first compound 0.000316 µM) was 103%. It also gave a viability, T/C (second compound 0.1 µM, first compound 0.001 µM) of 49.1%, a viability, T/C (second compound 0.1 µM, first compound 0.00316 µM) of 20.9% and a viability, T/C (second compound 0.1 µM, first compound 0.01 µM) of 8.09%. It also gave a viability, T/C [6] of 8.36%, a viability, T/C [7] of 7.55% and a viability, T/C (second compound 0.316 µM, first compound 0.000316 µM) of 106%. It also gave a viability, T/C (second compound 0.316 µM, first compound 0.001 µM) of 43.2%, a viability, T/C (second compound 0.316 µM, first compound 0.00316 µM) of 13.3% and a viability, T/C (second compound 0.316 µM, first compound 0.01 µM) of 8.02%. The viability, T/C [8] was 7.42%, the viability, T/C [9] was 6.91% and the viability, T/C (second compound 1 µM, first compound 0.000316 µM) was 73.1%. The viability, T/C (second compound 1 µM, first compound 0.001 µM) was 26.3%, the viability, T/C (second compound 1 µM, first compound 0.00316 µM) was 9.14% and the viability, T/C (second compound 1 µM, first compound 0.01 µM) was 7.12%. It also gave a viability, T/C [10] of 5.59%, a viability, T/C [11] of 6.98% and a viability, T/C (second compound 3.16 µM, first compound 0.000316 µM) of 0.08%. The viability, T/C (second compound 3.16 µM, first compound 0.001 µM) was 0.18%, the viability, T/C (second compound 3.16 µM, first compound 0.00316 µM) was 0.03% and the viability, T/C (second compound 3.16 µM, first compound 0.01 µM) was 0.06%. For the same compound, the viability, T/C [12] was 0.06%, the viability, T/C [13] was 0.13% and the viability, T/C (second compound 10 µM, first compound 0.000316 µM) was 0.08%. The viability, T/C (second compound 10 µM, first compound 0.001 µM) was 0.08%, the viability, T/C (second compound 10 µM, first compound 0.00316 µM) was 0.07% and the viability, T/C (second compound 10 µM, first compound 0.01 µM) was 0.09%. The viability, T/C [14] was 0.09% and the viability, T/C [15] was 0.15%.
